Tested on: Oryctolagus cuniculus
Test: Progestational activity in immature rabbit assessed as proliferation of uterus administered intramuscularly by haematoxylin and eosin staining-based assay
Type: functional

C=C1C[C@H]2[C@@H]3C=C(C)C4=CC(=O)CC[C@]4(C)[C@H]3CC[C@]2(C)[C@@]1(OC(C)=O)C(C)=O [MELENGESTROL ACETATE]
log(activity): 1.96

C=C1C[C@H]2[C@@H]3C=C(Cl)C4=CC(=O)CC[C@]4(C)[C@H]3CC[C@]2(C)[C@@]1(OC(C)=O)C(C)=O
log(activity): 1.89

C=C1C[C@H]2[C@@H]3C=C(N=[N+]=[N-])C4=CC(=O)CC[C@]4(C)[C@H]3CC[C@]2(C)[C@@]1(OC(C)=O)C(C)=O
log(activity): 1.3

C=C1C[C@H]2[C@@H]3C=C(OC(C)=O)C4=CC(=O)CC[C@]4(C)[C@H]3CC[C@]2(C)[C@@]1(OC(C)=O)C(C)=O
log(activity): -0.7

C=C1C[C@H]2[C@@H]3C=CC4=CC(=O)CC[C@]4(C)[C@H]3CC[C@]2(C)[C@@]1(OC(C)=O)C(C)=O
log(activity): 0

C=C1C[C@H]2[C@@H]3C=C(C#N)C4=CC(=O)CC[C@]4(C)[C@H]3CC[C@]2(C)[C@@]1(OC(C)=O)C(C)=O
log(activity): 0.78

C=C1C[C@H]2[C@@H]3C=C(SC#N)C4=CC(=O)CC[C@]4(C)[C@H]3CC[C@]2(C)[C@@]1(OC(C)=O)C(C)=O
log(activity): 1.08

C=C1C[C@H]2[C@@H]3C=C(Br)C4=CC(=O)CC[C@]4(C)[C@H]3CC[C@]2(C)[C@@]1(OC(C)=O)C(C)=O
log(activity): 1.62

C=C1C[C@H]2[C@@H]3C=C(C(F)(F)F)C4=CC(=O)CC[C@]4(C)[C@H]3CC[C@]2(C)[C@@]1(OC(C)=O)C(C)=O
log(activity): 1.04

C=C1C[C@H]2[C@@H]3C=C(F)C4=CC(=O)CC[C@]4(C)[C@H]3CC[C@]2(C)[C@@]1(OC(C)=O)C(C)=O
log(activity): 1.74

C=C1C[C@H]2[C@@H]3C=C(C=O)C4=CC(=O)CC[C@]4(C)[C@H]3CC[C@]2(C)[C@@]1(OC(C)=O)C(C)=O
log(activity): 0

C=C1C[C@H]2[C@@H]3C=C(OC)C4=CC(=O)CC[C@]4(C)[C@H]3CC[C@]2(C)[C@@]1(OC(C)=O)C(C)=O
log(activity): 1.15

C=C1C[C@H]2[C@@H]3C=C(OCC)C4=CC(=O)CC[C@]4(C)[C@H]3CC[C@]2(C)[C@@]1(OC(C)=O)C(C)=O
log(activity): 0

C=C1C[C@H]2[C@@H]3C=C(NC(C)=O)C4=CC(=O)CC[C@]4(C)[C@H]3CC[C@]2(C)[C@@]1(OC(C)=O)C(C)=O
log(activity): -1

— ChEMBL document CHEMBL3271998, “Quantitative structure-activity relationships among steroids. Investigations of the use of steric parameters” (1976)
